Results as given in ChEMBL document CHEMBL1201862, “PubChem BioAssay data set” (2004).
The source made the active and inactive calls.

Legend:
[1] = A Cell Based Secondary Assay To Explore Cytotoxicity of Compounds that Sensitize Mycobacterium Tuberculosis to Beta-Lactam Antibiotics.; format: functional
[2] = target: T1, fMet-Leu-Phe receptor (Homo sapiens, UniProt P21462); experiment: formyl peptide receptor binders – dose response (AID 519); format: functional
T1 sequence (P21462 whole entry): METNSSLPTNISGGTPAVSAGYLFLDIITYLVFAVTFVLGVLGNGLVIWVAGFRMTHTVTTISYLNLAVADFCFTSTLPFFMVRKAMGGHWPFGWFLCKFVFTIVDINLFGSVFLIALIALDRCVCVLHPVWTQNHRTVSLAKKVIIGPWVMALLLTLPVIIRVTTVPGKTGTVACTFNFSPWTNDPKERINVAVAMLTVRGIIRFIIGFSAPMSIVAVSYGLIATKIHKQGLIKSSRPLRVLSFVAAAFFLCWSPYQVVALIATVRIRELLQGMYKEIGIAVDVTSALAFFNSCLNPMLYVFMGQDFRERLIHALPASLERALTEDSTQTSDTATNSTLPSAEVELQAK

[3] = target: T2, Estrogen receptor (Homo sapiens, UniProt P03372);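 also: potency for inhibiting coactivator peptide recruitment to the receptor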
T2 sequence (P03372 whole entry): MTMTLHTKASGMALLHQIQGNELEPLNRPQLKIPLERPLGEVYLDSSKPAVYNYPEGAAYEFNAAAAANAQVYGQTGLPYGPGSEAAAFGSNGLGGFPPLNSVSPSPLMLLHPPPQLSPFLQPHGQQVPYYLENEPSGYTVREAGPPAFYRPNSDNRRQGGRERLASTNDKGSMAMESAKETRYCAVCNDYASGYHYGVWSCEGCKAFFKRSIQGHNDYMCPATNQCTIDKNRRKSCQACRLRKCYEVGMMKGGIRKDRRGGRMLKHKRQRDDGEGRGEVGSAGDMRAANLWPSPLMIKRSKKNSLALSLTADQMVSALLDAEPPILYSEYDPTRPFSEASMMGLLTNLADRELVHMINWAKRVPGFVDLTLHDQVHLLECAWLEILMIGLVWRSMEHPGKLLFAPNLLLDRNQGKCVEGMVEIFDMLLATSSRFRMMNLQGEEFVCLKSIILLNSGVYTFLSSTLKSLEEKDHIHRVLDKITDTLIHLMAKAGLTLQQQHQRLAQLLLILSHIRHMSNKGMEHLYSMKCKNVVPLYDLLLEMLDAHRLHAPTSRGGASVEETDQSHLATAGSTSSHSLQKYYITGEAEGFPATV

[4] = A cytotoxicity screen of small molecule inhibitors of the PhoP region in Salmonella typhi identified in the primary screen. [Related pubchem assays: 1850, 1864, 1985 ]; format: functional
[5] = target: T3, Voltage-gated N-type calcium channel alpha-1B subunit/Amyloid beta A4 precursor protein-binding family A member 1 (Homo sapiens, UniProt Q00975+Q02410); format: protein assay
T3 sequence (Q00975 whole entry): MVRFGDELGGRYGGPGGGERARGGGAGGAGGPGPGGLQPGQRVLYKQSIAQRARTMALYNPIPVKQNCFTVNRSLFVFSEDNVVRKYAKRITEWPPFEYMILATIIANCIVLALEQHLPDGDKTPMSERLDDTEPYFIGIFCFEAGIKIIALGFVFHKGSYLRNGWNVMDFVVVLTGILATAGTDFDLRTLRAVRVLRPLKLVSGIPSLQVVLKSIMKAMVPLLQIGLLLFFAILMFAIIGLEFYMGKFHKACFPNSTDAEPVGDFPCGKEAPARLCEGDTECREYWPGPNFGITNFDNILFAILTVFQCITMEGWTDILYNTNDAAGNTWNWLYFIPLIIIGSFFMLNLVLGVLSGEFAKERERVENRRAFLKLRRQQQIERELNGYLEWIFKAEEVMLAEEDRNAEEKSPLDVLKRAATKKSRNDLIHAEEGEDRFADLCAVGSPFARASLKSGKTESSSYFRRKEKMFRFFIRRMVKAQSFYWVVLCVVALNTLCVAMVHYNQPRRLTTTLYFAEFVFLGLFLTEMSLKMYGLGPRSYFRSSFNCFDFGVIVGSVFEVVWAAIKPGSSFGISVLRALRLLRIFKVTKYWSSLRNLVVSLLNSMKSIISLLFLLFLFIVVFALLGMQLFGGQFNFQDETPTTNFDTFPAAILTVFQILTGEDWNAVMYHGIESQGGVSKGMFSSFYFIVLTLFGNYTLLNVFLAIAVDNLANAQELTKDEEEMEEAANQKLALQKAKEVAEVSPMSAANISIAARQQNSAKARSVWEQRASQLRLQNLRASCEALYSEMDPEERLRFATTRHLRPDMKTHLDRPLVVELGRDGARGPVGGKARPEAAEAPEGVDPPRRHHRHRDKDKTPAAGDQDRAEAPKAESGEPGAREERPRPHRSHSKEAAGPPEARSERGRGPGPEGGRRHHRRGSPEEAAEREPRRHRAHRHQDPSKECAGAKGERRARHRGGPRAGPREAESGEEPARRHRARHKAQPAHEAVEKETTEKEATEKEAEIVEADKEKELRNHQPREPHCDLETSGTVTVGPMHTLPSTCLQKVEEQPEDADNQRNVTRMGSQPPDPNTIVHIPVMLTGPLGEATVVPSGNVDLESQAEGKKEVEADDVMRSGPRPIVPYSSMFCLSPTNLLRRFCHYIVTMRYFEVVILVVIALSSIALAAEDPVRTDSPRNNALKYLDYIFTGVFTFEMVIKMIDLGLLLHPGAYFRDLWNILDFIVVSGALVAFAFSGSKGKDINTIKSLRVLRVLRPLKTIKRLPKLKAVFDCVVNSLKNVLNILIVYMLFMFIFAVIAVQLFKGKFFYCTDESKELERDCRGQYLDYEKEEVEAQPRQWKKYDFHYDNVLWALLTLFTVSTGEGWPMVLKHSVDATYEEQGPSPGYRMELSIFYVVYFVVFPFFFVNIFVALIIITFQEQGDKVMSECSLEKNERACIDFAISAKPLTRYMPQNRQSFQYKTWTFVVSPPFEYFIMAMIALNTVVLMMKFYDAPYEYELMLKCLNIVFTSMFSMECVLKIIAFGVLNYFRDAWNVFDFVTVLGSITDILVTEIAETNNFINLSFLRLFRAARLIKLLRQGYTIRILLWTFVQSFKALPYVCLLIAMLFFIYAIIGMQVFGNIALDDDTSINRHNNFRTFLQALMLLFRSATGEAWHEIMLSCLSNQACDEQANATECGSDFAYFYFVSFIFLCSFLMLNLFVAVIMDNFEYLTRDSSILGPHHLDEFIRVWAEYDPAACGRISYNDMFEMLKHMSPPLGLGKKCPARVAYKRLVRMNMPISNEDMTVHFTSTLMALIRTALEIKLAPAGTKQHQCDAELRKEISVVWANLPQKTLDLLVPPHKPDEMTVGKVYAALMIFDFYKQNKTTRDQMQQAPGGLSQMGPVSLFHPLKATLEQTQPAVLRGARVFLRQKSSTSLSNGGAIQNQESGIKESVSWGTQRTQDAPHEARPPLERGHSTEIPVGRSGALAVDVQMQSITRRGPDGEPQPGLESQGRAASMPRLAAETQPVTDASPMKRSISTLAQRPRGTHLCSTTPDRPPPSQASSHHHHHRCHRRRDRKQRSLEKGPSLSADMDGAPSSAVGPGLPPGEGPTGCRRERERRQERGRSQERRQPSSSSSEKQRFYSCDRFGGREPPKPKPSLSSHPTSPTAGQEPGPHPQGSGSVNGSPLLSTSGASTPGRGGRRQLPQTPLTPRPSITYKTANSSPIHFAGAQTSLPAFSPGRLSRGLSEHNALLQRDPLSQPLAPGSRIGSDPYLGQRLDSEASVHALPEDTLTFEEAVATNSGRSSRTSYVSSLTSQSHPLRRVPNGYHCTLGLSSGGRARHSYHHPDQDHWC
T3 sequence (Q02410 whole entry): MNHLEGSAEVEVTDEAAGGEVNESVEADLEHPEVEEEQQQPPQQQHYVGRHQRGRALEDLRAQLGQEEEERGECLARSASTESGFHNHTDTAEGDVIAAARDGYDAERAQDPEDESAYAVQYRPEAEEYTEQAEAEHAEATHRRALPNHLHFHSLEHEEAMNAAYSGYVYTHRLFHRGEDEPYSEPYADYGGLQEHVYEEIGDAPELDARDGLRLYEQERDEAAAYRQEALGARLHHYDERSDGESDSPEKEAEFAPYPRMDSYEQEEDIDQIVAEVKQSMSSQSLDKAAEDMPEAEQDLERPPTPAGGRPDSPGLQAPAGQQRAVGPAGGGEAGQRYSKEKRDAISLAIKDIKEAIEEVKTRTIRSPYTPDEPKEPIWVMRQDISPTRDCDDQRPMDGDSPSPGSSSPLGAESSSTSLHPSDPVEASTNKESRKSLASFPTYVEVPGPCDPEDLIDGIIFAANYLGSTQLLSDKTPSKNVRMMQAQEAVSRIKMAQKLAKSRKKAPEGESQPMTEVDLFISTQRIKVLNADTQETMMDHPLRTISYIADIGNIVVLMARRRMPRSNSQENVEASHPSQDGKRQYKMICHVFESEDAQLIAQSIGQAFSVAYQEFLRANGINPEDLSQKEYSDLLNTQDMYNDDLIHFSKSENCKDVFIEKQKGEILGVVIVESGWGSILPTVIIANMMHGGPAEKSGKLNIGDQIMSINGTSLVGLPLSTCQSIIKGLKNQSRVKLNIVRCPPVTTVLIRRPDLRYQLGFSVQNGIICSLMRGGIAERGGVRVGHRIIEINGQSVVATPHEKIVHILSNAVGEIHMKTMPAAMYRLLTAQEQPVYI

[6] = target: T3, Voltage-gated N-type calcium channel alpha-1B subunit/Amyloid beta A4 precursor protein-binding family A member 1; format: protein assay; remark: listed apart in the source
[7] = target: T4, Short transient receptor potential channel 4 (Mus musculus, UniProt Q9QUQ5); experiment: block of DAMGO-driven TRPC4 calcium entry – cell-based, HEK293 TRPC4/mu-opioid, Fluo-4 calcium, dose response (AID 434942); format: functional;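 also: potency of inhibitors blocking the TRPC4 calcium response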
T4 sequence (Q9QUQ5 whole entry): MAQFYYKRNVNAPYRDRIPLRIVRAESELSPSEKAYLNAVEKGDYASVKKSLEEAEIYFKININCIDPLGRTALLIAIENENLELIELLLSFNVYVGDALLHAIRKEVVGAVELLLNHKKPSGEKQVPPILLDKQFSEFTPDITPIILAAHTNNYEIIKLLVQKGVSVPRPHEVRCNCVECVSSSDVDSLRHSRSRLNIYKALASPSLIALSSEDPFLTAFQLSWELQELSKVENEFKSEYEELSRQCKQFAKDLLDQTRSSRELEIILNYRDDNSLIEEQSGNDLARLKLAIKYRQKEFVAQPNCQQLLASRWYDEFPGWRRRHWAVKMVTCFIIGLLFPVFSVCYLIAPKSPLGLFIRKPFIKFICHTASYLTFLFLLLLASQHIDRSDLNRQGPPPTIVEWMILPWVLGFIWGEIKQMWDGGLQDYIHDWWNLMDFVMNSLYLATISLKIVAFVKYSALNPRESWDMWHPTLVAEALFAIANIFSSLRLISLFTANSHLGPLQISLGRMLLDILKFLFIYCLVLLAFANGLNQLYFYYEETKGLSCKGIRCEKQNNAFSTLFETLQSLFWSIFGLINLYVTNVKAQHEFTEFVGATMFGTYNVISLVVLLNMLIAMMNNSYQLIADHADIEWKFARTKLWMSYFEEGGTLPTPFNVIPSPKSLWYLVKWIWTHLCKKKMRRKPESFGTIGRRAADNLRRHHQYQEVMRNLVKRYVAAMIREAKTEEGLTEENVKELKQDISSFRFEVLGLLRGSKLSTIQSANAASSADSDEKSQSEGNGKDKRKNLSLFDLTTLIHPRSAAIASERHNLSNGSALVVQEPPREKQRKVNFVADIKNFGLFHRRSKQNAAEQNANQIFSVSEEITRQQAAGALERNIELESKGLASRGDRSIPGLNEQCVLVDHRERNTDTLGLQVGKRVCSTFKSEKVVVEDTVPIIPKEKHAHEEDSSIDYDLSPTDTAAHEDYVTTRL

[8] = target: T5, Epstein-Barr nuclear antigen 1 (Epstein-Barr virus (strain B95-8) (HHV-4) (Human herpesvirus 4), UniProt P03211); experiment: inhibition of EBV nuclear antigen 1 DNA binding – biochemical, fluorescence polarization, 1536-well, dose response (AID 2381); design: species or system human gammaherpesvirus 4;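 also: fluorescence polarization of a Cy5 DNA probe bound by EBNA-1 protein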
T5 sequence (P03211 whole entry): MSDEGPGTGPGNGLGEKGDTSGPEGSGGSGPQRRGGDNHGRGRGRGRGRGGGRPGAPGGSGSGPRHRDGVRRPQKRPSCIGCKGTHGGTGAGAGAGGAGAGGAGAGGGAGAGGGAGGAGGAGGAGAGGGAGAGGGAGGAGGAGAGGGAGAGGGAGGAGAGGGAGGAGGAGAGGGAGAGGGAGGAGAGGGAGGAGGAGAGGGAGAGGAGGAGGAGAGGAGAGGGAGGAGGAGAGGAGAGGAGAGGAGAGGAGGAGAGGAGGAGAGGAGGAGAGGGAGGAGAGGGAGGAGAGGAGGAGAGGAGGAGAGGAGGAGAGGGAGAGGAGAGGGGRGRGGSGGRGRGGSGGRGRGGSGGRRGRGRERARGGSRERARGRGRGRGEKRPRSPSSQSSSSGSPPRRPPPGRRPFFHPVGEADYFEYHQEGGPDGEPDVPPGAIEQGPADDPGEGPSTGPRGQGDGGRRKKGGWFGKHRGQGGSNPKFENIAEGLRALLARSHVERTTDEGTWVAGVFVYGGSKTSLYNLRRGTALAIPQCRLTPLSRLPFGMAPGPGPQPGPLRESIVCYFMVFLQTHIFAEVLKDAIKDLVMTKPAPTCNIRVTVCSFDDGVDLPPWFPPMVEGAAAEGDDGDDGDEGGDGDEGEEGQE

[9] = target: T6, Lytic switch protein BZLF1 (Epstein-Barr virus (strain B95-8) (HHV-4) (Human herpesvirus 4), UniProt P03206); experiment: inhibition of BZLF1 ZTA DNA binding – biochemical, fluorescence polarization, Epstein-Barr virus, 1536-well, counter-screen for EBNA-1 inhibitor project, dose response (AID 2377); design: species or system human gammaherpesvirus 4;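 also: fluorescence polarization of Cy5-labelled ZRE DNA probe bound by purified Zta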
T6 sequence (P03206 whole entry): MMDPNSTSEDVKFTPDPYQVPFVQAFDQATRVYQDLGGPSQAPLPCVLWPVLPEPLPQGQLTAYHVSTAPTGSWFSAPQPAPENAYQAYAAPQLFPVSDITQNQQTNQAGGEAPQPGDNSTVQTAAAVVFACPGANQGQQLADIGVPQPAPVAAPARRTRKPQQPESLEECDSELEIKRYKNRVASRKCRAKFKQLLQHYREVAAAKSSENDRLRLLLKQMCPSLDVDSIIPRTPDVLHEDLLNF

[10] = target: Eukaryotic translation initiation factor 4E (Mus musculus, UniProt P63073); experiment: blockers of eIF4G binding by eIF4E – biochemical, TR-FRET, dose response (AID 855); format: functional;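 also: potency for disrupting eIF4E binding to eIF4GI seen as loss of FRET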
Eukaryotic translation initiation factor 4E, sequence (P63073 whole entry): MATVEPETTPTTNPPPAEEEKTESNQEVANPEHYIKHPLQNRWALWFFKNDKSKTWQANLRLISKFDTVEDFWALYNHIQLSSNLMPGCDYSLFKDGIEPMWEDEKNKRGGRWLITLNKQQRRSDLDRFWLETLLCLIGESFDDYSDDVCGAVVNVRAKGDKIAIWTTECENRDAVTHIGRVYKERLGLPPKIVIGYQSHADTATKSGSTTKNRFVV

[11] = NIH3T3 cell viability loss – ATP luminescence, mouse fibroblasts, counter-screen, dose response (AID 2010); format: functional, cell-based;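 also: cells exposed to compound for about 90 hours before reading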
[12] = target: Induced myeloid leukemia cell differentiation protein Mcl-1 (Homo sapiens, UniProt Q07820); format: functional
Induced myeloid leukemia cell differentiation protein Mcl-1, sequence (Q07820 whole entry): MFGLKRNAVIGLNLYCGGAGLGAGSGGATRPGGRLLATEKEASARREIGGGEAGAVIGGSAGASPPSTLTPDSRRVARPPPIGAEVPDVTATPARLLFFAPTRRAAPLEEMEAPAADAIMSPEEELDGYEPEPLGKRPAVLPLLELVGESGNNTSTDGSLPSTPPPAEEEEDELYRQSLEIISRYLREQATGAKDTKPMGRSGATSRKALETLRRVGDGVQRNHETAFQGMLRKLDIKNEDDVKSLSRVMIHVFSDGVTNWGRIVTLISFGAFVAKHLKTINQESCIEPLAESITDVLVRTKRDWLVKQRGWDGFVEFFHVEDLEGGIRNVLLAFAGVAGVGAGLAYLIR

[13] = Trypanosoma cruzi growth suppression in host cells – NIH3T3 host cells, beta-gal luminescence, confirmation (AID 2044); format: functional, cell-based;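 also: intracellular parasites grown in NIH/3T3 mouse fibroblasts as host cells; luminescent beta-galactosidase reporter signal from transgenic T. cruzi replicating inside host cells; inhibitors lower the luminescence signal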
[14] = test system: H9c2; experiment: cells; format: functional, cell-based; details: Rattus norvegicus, H9c2, Myocardium;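 also: confirmatory concentration-response retest of ultra-high-throughput screening hits for modulation of myocardial damage; cell death induced by hydrogen peroxide oxidative stress; compound pretreatment for 60 min then peroxide exposure for 2 h; potency is for protecting the cells against peroxide damage rather than for killing them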
[15] = test system: H4; experiment: Luminescence Cell-Based Dose Response HTS to Identify Activators of 5'UTR Stem-Loop Driven Prion Protein mRNA Translation in H4 Neuroglioblastoma Cells. [Related pubchem assays: 1829 (Project Summary), 1814 (Primary HTS)]; format: functional; details: Homo sapiens
[16] = Luminescence Cell-Based Dose Confirmation HTS to Identify Activators of 5'UTR Stem-Loop Driven Alpha-Synuclein mRNA Translation in H4 Neuroglioblastoma Cells. [Related pubchem assays: 1829 (Project Summary), 1814 (Primary HTS)]; format: functional
[17] = Luminescence Cell-Based Dose Response HTS to Identify Activators of Luciferase Translation or Activity in H4 […] Cells. [Related pubchem assays: 1829 (Project Summary), 1814 (Primary HTS)]; format: functional

## N#Cc1c(C(F)(F)F)cc(-c2ccccc2)nc1SCc1nc(N)nc(N2CCOCC2)n1
[1]
  CC50: > 40 µM (active)
[2]
  Ki: > 66.7 µM (inactive)
[3]
  IC50: > 50 µM (not active)

## COc1ccc(CCNC2CCCCC2)cc1
[4]
  EC50: > 50 µM (active)

## COC/C=C/C1=CC2=CC(=O)C(C)(OC(=O)c3cnc4ccccc4n3)C(=O)C2=CN1c1ccc(CO)cc1 (configuration not stated)
[5]
  IC50: 10.4 µM (active)
[6]
  IC50: 11.2 µM (active)

## Cc1cccc(NC(=S)NC2CCCCC2)n1
[5]
  IC50: 9.58 µM (active)
[6]
  IC50: > 50 µM (inactive)

## O=C(Nc1ccnn1C1CCN(CCCC2CCCC2)CC1)c1ccccc1Cl
[7]
  EC50: 1.68 µM (active)

## CCCCn1cnc2cc(NCc3cccc(OC)c3O)ccc21
[4]
  EC50: > 50 µM (active)

## COc1ccc(Sc2nc(-c3ccccc3)ncc2C(=O)O)cc1
[7]
  EC50: 5.96 µM (active)

## CCOc1cccc(NC(=O)Cn2nc(-c3ccc4c(c3)OCCO4)ccc2=O)c1
[8]
  IC50: 13.7 µM (not active)
[9]
  IC50: > 111 µM (not active)

## CC12CC3(C)CC(C)(C1)CC(NC(=O)N1CCCC1)(C2)C3
[7]
  EC50: 7.5 µM (active)

## C/C=C/C=C\C(=O)Nc1cccc(C2=NOC3(C2)C[C@H](C(N)=O)N(C(=O)/C=C/C)C3)c1 (some centres not stated)
[5]
  IC50: 9.88 µM (active)
[6]
  IC50: 6.79 µM (active)

## CC(=O)Nc1ccc(NC(=O)C(C)OC(=O)c2oc3ccccc3c2C)cc1 (configuration not stated)
[8]
  IC50: 9.16 µM (active)
[9]
  IC50: > 111 µM (not active)

## COc1ccc(CNC2=NC(=O)CC(C(=O)Nc3ccc(F)cc3)S2)cc1 (configuration not stated)
[10]
  IC50: > 64 µM (inactive)

## COc1ccc(S(=O)(=O)N2CCC(C(=O)NCc3cccc(OC)c3)CC2)cc1
[10]
  IC50: > 64 µM (inactive)

## Cc1ccc2[nH]c(O)c(N=Nc3nc4ccccc4s3)c2c1
[11]
  EC50: > 60 µM (not active)
[1]
  CC50: 39.6 µM (active)
[12]
  IC50: 2.11 µM (active)
[13]
  EC50: 3.38 µM (active)

## CSc1ccccc1NC(=O)c1ccccc1C
[10]
  IC50: 50 µM (inactive)

## C/C(=N\NC(=O)c1c(Br)c(C)nn1C)c1ccc(NC(=O)c2ccoc2C)cc1
[8]
  IC50: 15.7 µM (not active)
[4]
  EC50: > 50 µM (active)
[9]
  IC50: > 111 µM (not active)
[14]
  IC50: > 79 µM (inactive)

## COc1ccc(C2CC2/C(=N/O)c2ccccc2)cc1 (configuration not stated)
[7]
  EC50: 2.99 µM (active)

## CCOC(=O)c1ccc(N2Cc3ccccc3/C2=N\C(=O)c2cccc([N+](=O)[O-])c2)cc1
[4]
  EC50: > 50 µM (active)
[15]
  EC50: 6.09 µM (active)
[16]
  EC50: 39.1 µM (active)
[17]
  EC50: 12.3 µM (active)

## COc1ccc(-c2c/c(=N\c3ccc(C)cc3)c3ccccc3o2)cc1
[1]
  CC50: > 40 µM (active)

## COc1ccc(/C=C2\SC(=S)N(CC(=O)NNC(=O)c3ccncc3)C2=O)cc1
[5]
  IC50: > 56.8 µM (not active)
[6]
  IC50: > 50 µM (inactive)
